Assay results published in patent publication US20090042906A1, “METHODS FOR TREATING CANCERS ASSOCIATED WITH CONSTITUTIVE EGFR SIGNALING” (Massachusetts Institute of Technology, priority 2007, published 2009).

Legend:
[1] = system: human glioblastoma xenografts expressing EGFRvIII; conditions: co-treatment of cisplatin with AG1478; cited from earlier work
c-Met receptor [2] = target: T1, c-Met receptor (Homo sapiens, UniProt P08581); assay: Immunoblotting of c-Met receptor phosphorylation after kinase inhibitor treatment of U87H cells; type: cell-based; conditions: 1 h inhibitor dose escalation after 24-h serum starvation, Western blot
T1 construct: the U87MG cell line which expresses low levels of c-Met; endogenous in cells; host or cells: U87MG-derived U87H cells (human glioblastoma)
Experimental: For whole-cell extracts, cells were lysed in lysis buffer (20 mmol/L Tris-HCl, 150 mmol/L NaCl, 1 mmol/L EDTA, 1% Triton X-100, 2.5 mmol/L sodium PPi, 1 mmol/ ? glycerophosphate) containing protease and phosphatase inhibitors after the indicated treatment. Protein samples were separated on either 7.5% or 10% SDS-polyacrylamide gels and transferred onto polyvinylidene difluoride membrane. Blots were developed with supersignal West Femto substrate (Pierce) after incubation with primary and secondary antibodies. […] Cells were then lysed as described above for either immunoblotting or mass spectrometric analysis.

U87H cells [3] = assay: Cell viability assay (WST-1); type: cell-based, human; conditions: for cell viability, combination with cisplatin: increasing doses of inhibitor with constant 10 μg/ml cisplatin, versus cisplatin only control; for cell viability, single agent: single treatment, 72 h after 24-h serum starvation; for cytotoxicity of combination treatment: 10 μM c-Met inhibitor plus 5 μM AG1478, P<0.001 (SU11274), P<0.0001 (PHA665752); for cell viability, combined dosing with AG1478: c-Met inhibitor dose-response plus constant 5 μM AG1478, 72 h
c-Met receptor [4] = target: T1, c-Met receptor; assay: Mass spectrometric phosphotyrosine analysis of SU11274 treated U87H cells (c-Met); type: cell-based; conditions: mass spectrometry
EGFRvIII receptor = target: T2, EGFRvIII receptor (Homo sapiens, UniProt P00533, DELINS30-297G); assay: Mass spectrometric phosphotyrosine analysis of SU11274 treated U87H cells (EGFRvIII sites); type: cell-based; conditions: mass spectrometry (data not shown)
T2 construct: expressed in transfected cells; host or cells: U87MG human glioblastoma cells (U87H population), retroviral transduction with pLERNL
Experimental: U87MG cells expressing titrated levels of EGFRvIII were maintained in DMEM medium supplemented with 10% FBS. 1.5 million cells per 10 cm plate were washed with PBS and incubated for 24 hours in serum-free media. Cells were lysed with 8 M urea supplemented with 1 mM sodium orthovanadate (Sigma-Aldrich). For each biological replicate, three 10 cm plates were pooled together. The samples were then further processed and labeled with the iTRAQ reagent as previously described (Zhang et al. (2005) Mol Cell Proteom 4:1240-1250). Peptide immunoprecipitation was performed as previously described (Zhang et al. (2005) Mol Cell Proteom 4:1240-1250), with the following exceptions: 10 μg of protein G Plus-agarose beads (Calbiochem) were incubated with 12 μg of anti-phosphotyrosine antibody (pTyr100 (Cell Signaling Technology) in 200 μl of IP buffer (100 mM Tris, 100 mM NaCl, 1% NP-40, pH 7.4) for 8 hr at 4° C. Immobilized metal affinity chromatography (IMAC) was performed as previously described to remove non-specific non-phosphorylated peptides and eluted phosphopeptides were analyzed by ESI LC-MS/MS on a QqT of (QSTAR XL Pro, Applied Biosystems) operated in IDA mode, as previously described (Zhang et al. (2005) Mol Cell Proteom 4:1240-1250).
MS/MS spectra were extracted and searched against human protein database (NCBI) using ProQuant (Applied Biosystems) as recommended by the manufacturer. […]

U87H cells [5] = assay: Apoptosis assay (caspase 3/7 activity, Apo-ONE); type: cell-based, human
Experimental: 10,000 cells were seeded per well in a 96 well plate. […] After 24 hours of drug treatment, caspase 3/7 activity was measured using Apo-ONE Homogeneous Caspase-3/7 Assay (Promega), following the manufacturer's recommendations.

T1 sequence (P08581 25-1390): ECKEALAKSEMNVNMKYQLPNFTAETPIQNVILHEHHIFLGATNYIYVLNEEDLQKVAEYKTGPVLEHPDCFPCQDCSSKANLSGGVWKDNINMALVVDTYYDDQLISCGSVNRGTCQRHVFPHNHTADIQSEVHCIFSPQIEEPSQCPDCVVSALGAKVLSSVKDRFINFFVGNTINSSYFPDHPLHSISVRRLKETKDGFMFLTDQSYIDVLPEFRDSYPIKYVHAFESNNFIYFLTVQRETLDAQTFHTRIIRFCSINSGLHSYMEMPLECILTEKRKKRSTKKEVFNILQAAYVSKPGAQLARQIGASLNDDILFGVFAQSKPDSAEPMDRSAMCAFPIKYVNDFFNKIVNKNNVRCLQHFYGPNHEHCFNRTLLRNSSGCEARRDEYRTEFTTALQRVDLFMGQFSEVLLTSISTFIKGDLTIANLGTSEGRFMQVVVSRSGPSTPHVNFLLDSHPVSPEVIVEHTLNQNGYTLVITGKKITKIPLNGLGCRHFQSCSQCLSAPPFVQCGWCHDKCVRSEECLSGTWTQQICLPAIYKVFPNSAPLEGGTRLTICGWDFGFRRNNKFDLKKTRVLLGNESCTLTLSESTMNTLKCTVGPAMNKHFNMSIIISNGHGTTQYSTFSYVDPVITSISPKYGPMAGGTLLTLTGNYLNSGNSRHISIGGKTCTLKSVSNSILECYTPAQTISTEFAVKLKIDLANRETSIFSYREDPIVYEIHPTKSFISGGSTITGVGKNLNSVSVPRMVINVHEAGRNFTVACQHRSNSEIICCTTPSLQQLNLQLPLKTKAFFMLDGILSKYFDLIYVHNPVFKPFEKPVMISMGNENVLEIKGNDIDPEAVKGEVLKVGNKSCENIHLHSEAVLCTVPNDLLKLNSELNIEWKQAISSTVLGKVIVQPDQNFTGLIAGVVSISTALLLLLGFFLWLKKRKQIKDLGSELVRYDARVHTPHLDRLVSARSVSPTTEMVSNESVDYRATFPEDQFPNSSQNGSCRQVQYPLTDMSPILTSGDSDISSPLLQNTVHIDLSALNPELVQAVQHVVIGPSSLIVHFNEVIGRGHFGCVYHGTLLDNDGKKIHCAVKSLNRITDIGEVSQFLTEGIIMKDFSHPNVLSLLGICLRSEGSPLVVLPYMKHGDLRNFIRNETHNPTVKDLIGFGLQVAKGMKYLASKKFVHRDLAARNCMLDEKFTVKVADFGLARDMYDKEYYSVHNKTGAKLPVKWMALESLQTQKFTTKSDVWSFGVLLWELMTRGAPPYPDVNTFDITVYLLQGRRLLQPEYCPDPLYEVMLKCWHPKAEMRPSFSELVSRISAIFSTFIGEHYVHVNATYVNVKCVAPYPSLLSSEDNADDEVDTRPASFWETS

| Structure (SMILES) | sensitisation of xenografts to cisplatin [1] | c-Met receptor phosphorylation (Y1230/Y1234/Y1235) (c-Met receptor [2]) | cell viability, combination with cisplatin (U87H cells [3]) | cell viability, single agent (U87H cells [3]; WST-1) | cytotoxicity of combination treatment (U87H cells [3]) | cell viability, combined dosing with AG1478 (U87H cells [3]; WST-1) | specificity for the kinase activity of the c-Met receptor (c-Met receptor [4]) | EGFRvIII receptor tyrosine phosphorylation on multiple sites (EGFRvIII receptor) | apoptosis (caspase 3/7 cleavage), combination treatment (U87H cells [5]; 10 μM SU11274 plus 5 μM AG1478, 24 h after 24-h serum starvation, P<0.01) | cell death, combined dosing with AG1478 (U87H cells [5]; SU11274 with constant 5 μM AG1478) | cell viability, cisplatin only (U87H cells [3]; 10 μg/ml cisplatin over 72 h after 24-h serum starvation, WST-1) |
| --- | --- | --- | --- | --- | --- | --- | --- | --- | --- | --- | --- |
| COc1cc2ncnc(Nc3cccc(Cl)c3)c2cc1OC [AG1478] | sensitized to cisplatin | concomitant decrease | similar | only decreased cell viability at very high inhibitor doses | – | – | – | – | – | – | – |
| Cc1[nH]c(/C=C2\C(=O)Nc3ccc(S(=O)(=O)Cc4c(Cl)cccc4Cl)cc32)c(C)c1C(=O)N1CCC[C@@H]1CN1CCCC1 [PHA665752] | – | – | – | – | significantly enhanced cytotoxicity | synergistically sensitize | – | – | – | – | – |
| Cc1[nH]c(/C=C2\C(=O)Nc3ccc(S(=O)(=O)N(C)c4cccc(Cl)c4)cc32)c(C)c1C(=O)N1CCN(C)CC1 [SU11274] | – | dose dependent decrease | dramatic decrease in cell viability | only decreased cell viability at very high inhibitor doses | significantly enhanced cytotoxicity | synergistic decrease in cell viability | exquisitely specific | does not affect | significantly enhanced apoptosis | increase in cell death | – |
| N.N.[Cl][Pt][Cl] [cisplatin] | – | – | – | – | – | – | – | – | – | – | resistant |
